Here are results for six compounds from patent US7875422B2, “Viral drug susceptibility testing” (Cavidi AB, priority 2001, dated 2011).

SMILES strings stand for the structures. Read-outs that look alike come from different tables or passages of the source.

Experiment [1] has as its system HIV 1 virus with the corresponding RT modification. Also on record: key: S = sensitive; L = Low level resistance (2–10 times increase in inhibitory dose); I = Intermediate resistance (10–100 times increase); H = High level resistance (>100 times increase). To be noted: phenotype data from literature, cited from earlier work.
The test system is the same in experiment [2]. Also on record: key: S = sensitive; L = Low level resistance (2–10 times increase in inhibitory dose); I = Intermediate resistance (10–100 times increase); H = High level resistance (>100 times increase). Particulars: dT analogues, phenotype data from literature, cited from earlier work.
The test system is the same in experiment [3]. Also on record: key: RS = the mutations gives re-sensitation of resistant virus; S = sensitive; L = Low level resistance; I = Intermediate resistance; H = High level resistance. Particulars: phenotype data from literature, cited from earlier work.
In experiment [4] the target is recombinant HIV 1 RT wild type BH10 (Human immunodeficiency virus type 1 group M subtype B, UniProt P03366). The experiment can be described thus: RT inhibition assay for dT analogues (Chain-termination reaction mixture). Particulars: for fold increase of IC50: Recombinant RT control wild type RT (Table 4).
The target in experiment [5] is recombinant HIV 1 RT T215Y (Human immunodeficiency virus type 1 group M subtype B, UniProt P04585, T802Y). The description is as above.
Excerpt: (§1) Regrettably an efficient phosphorolysis reaction is promptly reflected by a decrease in polymerization velocity and as a consequence also a decrease in detection sensitivity. Therfore this assay require more RT activity, compared to the corresponding assay for the NNRTIs.
The test system of experiment [6] is recombinant HIV 1 RT M41L/T69S-SS/L210W/R211K/L214F/T215Y. To be noted: Recombinant RT control T69S→SS; compared to wild type control RT.
Excerpt: as §1
The target in experiment [7] is recombinant HIV 1 RT M41L/T69S-SS/L210W/R211K/L214F/T215Y (Human immunodeficiency virus type 1 group M subtype B, UniProt P04585, INS655SS/L797W/L801F/M628L/R798K/T656S/T802Y). The experiment can be described thus: biochemical.
Excerpt: as §1
Experiment [8] addresses recombinant HIV 1 RT wild type HxB2 (Human immunodeficiency virus type 1 group M subtype B, UniProt P04585). The experiment can be described thus: RT inhibition assay for dT analogues (Chain-termination reaction mixture).
Excerpt: as §1
Experiment [9] deals with HIV RT recovered from patient plasma (UniProt P04585, K657R/L797S, species not given). The experiment can be described thus: Susceptibility to AZT-TP and d4T-TP using plasma derived RTs (Chain-termination reaction mixture). To be noted: plasma RT of patient code 1030 (K70R, L210S); 5 fg/well.
The target in experiment [10] is HIV RT recovered from patient plasma (UniProt P04585, K690N/V695H, species not given). Described as above. Particulars: plasma RT of patient code 2098; 5 fg/well.
Experiment [11] deals with HIV RT recovered from patient plasma (Human immunodeficiency virus type 1, UniProt P03366). The experiment is described as above. Particulars: 5 fg/well.
Description: (§2) • 1) Label the 4.5 ml plastic tubes to be used. Place them in a Nalgene box. Add 1 ml of sample (e.g. EDTA plasma from HIV infected individuals) to each labelled tube. Add 100 μl of a 66 mM solution of 5,5′-dithiobis-(2-nitrobenzoic acid) in buffered water, vortex and incubate the samples for one hour at room temperature.
(§3) The activity of the free plasma enzymes is destroyed during this procedure while the enzymes contained within the virions remain intact. The virions can then be purified from 5,5′-dithiobis-(2-nitrobenzoic acid), enzyme activity blocking antibodies and other substances that may interfere with quantification of viral RT by several separation procedures. The protocol below is based on the use of Fractogel® EMD TMAE Hicap gel. • 2) Suspend the separation gel carefully and transfer 1500 μl gel slurry to each sample pretreatment tube. • 3) Incubate the samples with the gel slurry for 90 minutes at room temperature with the tubes lying down horizontally on an orbital shaker. • 4) Label the desired amount of 10 ml plastic mini columns to identify the samples being analyzed. Mount the columns in a column washing device i.e. a Supelco Visiprep solid phase extraction vacuum manifold. Transfer the contents in the binding tubes to their corresponding columns. Before transfer vortex the tube briefly to evenly distribute the gel. • 5) When all the columns are filled, apply the vacuum and suck the gels dry. Turn off the vacuum and start the washing by filling each column with 9 ml buffer A. When all columns have been filled, apply the vacuum and suck the gels dry. • 6) Repeat step 5 three more times, giving a total of four washes. Suck the gels dry after each wash. After sucking the gels dry after the fourth wash, turn off the vacuum and proceed to step 7. • The washing step removes unbound RT blocking antibodies and 5,5′-dithiobis-(2-nitrobenzoic acid) from the system. • 7) Add to all dry gels 9 ml of conditioning buffer (B). After one minute apply vacuum and suck the gels dry. • 8) Repeat step 7. Before turning off the vacuum check that all conditioning buffer (B) has been removed from all gels. • 9) Lift off the upper part of the column wash device. Mount the tube holder with the labelled tubes into a clean container. Refit the upper part of the device. Control that the small tubings from each column go down in their corresponding tubes. • 10) Add 600 μl lysis buffer (C) to each column. Let the buffer stand in the column for five minutes. Then apply the vacuum slowly and suck the gels dry. This will in each tube give approximately 600 μl of virus lysate from the connected gel.
(§4) The RT activity recovered in the lysates from step 10 are essentially free from RT blocking antibodies, drugs and cellular polymerase activity, and can be quantified with a sensitive RT activity assay, i.e. the Cavidi HS-kit Lenti RT, which is based on the method described by Ekstrand et al [7]. 25 μl lysate obtained according to the current protocol is sufficient for determination of the RT activity in the sample. The Remaining 575 μl sample should be frozen at −70° C. or below for later use in the drug sensitivity test.
Experiment [12] concerns HIV RT recovered from patient plasma. The description is as above. To be noted: compared to wild type control RT.
Description: as §2, §3, §4
The target in experiment [13] is HIV RT recovered from patient plasma (UniProt P04585, M628L/E631D/D654N/A685G/V705I/Y768C/L797W/T802Y, species not given). Described as above. To be noted: plasma RT of patient code 656 (resensitising 181C); 5 fg/well.
For experiment [14], the target named is HIV RT recovered from patient plasma (UniProt P04585, T656N/L687I/K690N, species not given). Described as above. Particulars: plasma RT of patient code 622; 5 fg/well.
Experiment [15] has as its target T1, recombinant HIV 1 RT wild type (Human immunodeficiency virus type 1 group M subtype B, UniProt P04585).
T1 construct: This variation was maximal for wild type RT; made in house
The experiment can be described thus: Influence of the amount of RT used in the drug susceptibility tests (AZT-TP). Format: biochemical.

[16] abbreviates: virus with M41L/T69S-SS/L210W/R211K/L214F/T215Y.
[17] abbreviates: IC50, plasma RT of patient code 48.
The mark [18] stands for this setting: IC50, plasma RT of patient code 160.
The mark [19] stands for this setting: IC50, plasma RT of patient code 181.
[20] abbreviates: IC50, plasma RT of patient code 662.
The mark [21] stands for this setting: IC50, plasma RT of patient code 807.
Setting [22] is: IC50, plasma RT of patient code 3507.

Take `Cc1ccnc2c1NC(=O)c1cccnc1N2C1CC1` [Nevirapin, 11-cyclopropyl-5,11-dihydro-4-methyl-6H-dipyrido[3,2-b:2′,3′-f][1,4]diazepin-6-one]: the “Sensitivity of the corresponding virus” value in experiment [1] (virus with K103N) is “H (H = High level resistance (>100 times increase))”; in [1] (virus with L100I/K103N) it was “H (H = High level resistance (>100 times increase))”; in experiment [1] (virus with L100I), “L (L = Low level resistance (2–10 times increase in inhibitory dose))”; in experiment [1] (wild type BH10, NNRTIs), “S”; in [1] (wild type HxB2, NNRTIs), “S”.
In the case of `O=C1Nc2ccc(Cl)cc2C(C#CC2CC2)(C(F)(F)F)O1` (single isomer, unassigned; (-)) [Efavirienz, (−)6-chloro-4-cyclopropylethynyl-4-trifluoromethyl-1,4-dihydro-2H-3,1-benzoxazin-2-one], the “Sensitivity of the corresponding virus” value in [1] (virus with K103N) is listed as “H (H = High level resistance (>100 times increase))”; in experiment [1] (virus with L100I/K103N) it was “H (H = High level resistance (>100 times increase))”; in experiment [1] (virus with L100I), “I (I = Intermediate resistance (10–100 times increase))”; in experiment [1] (wild type BH10, NNRTIs) it was “S”; in [1] (wild type HxB2, NNRTIs), “S”.
`Cc1cn([C@H]2C[C@H](N=[N+]=[N-])[C@@H](CO)O2)c(=O)[nH]c1=O` [AZT]: the “Sensitivity of the corrsponding virus” value in [2] (wild type HXB2) is listed as “S”; in [2] (wildtype BH 10), “S”; in [3] (setting [16]), “H”; in experiment [3] (virus with T215Y) it was “I”.
Take `Cc1cn([C@H]2C=C[C@@H](COP(=O)(O)OP(=O)(O)OP(=O)(O)O)O2)c(=O)[nH]c1=O` [d4T-TP, 2′,3′-didehydro-3′-deoxythymidine triphosphate]: the IC50 in experiment [4] was 33 nM; in experiment [5], 150 nM; in experiment [7], 490 nM; in experiment [8], 50 nM; in experiment [9] it was 1100 nM; in experiment [10], 48 nM. Further, the IC50 is 85 nM in [11] (setting [17]); 43 nM in experiment [11] (setting [18]); 49 nM in experiment [11] (setting [19]); 65 nM in experiment [11] (setting [20]); 70 nM in experiment [11] (setting [21]); 20 nM in experiment [11] (setting [22]). Besides, the values for the half-maximal inhibitory concentration (IC50) in experiment [13] and in experiment [14] were 170 nM and 28 nM, respectively. Besides, the “fold increase of IC50” value in experiment [4] is 1.0 fold; in [6] it was 15 fold; in experiment [12] (patient code 48), 2.6 fold; in experiment [12] (patient code 160) it was 1.3 fold; in [12] (patient code 181) it was 1.5 fold; in [12] (patient code 393), 12.7 fold. Also, the “fold increase of IC50” value in experiment [12] (patient code 622) is reported as 0.8 fold; in experiment [12] (patient code 656), 5.2 fold; in experiment [12] (patient code 662), 2.0 fold; in experiment [12] (patient code 807) it was 2.7 fold; in experiment [12] (patient code 1030), 33 fold; in [12] (patient code 1320), 19.6 fold. The “fold increase of IC50” value is on record as 1.5 fold in [12] (patient code 2098) and 0.6 fold in experiment [12] (patient code 3507).
For the compound `Cc1cn([C@H]2C=C[C@@H](CO)O2)c(=O)[nH]c1=O` [d4T], the “Sensitivity of the corrsponding virus” value in experiment [2] (wild type HXB2) was “S”; in experiment [2] (wildtype BH 10), “S”; in experiment [3] (setting [16]), “H”; in experiment [3] (virus with T215Y), “L”.
On to `Cc1cn(C2CC(N=[N+]=[N-])C(COP(=O)(O)OP(=O)(O)OP(=O)(O)O)O2)c(=O)[nH]c1=O` (centres unmarked) [AZT-TP, 3′-azido-2′,3′-deoxythymidine triphosphate], for which the IC50 was determined as 160 nM in experiment [4]; 130 nM in [15] (RT amount 2 fg/well); 220 nM in [15] (RT amount 162 fg/well); 690 nM in experiment [5]; 4000 nM in [7]; 190 nM in [8]. Further, the IC50 stood at 3200 nM in experiment [9]; 350 nM in experiment [10]; 470 nM in [11] (setting [17]); 270 nM in experiment [11] (setting [18]); 500 nM in experiment [11] (setting [19]); 500 nM in experiment [11] (setting [20]). Also, the IC50 was 500 nM in experiment [11] (setting [21]), 130 nM in [11] (setting [22]), 1250 nM in [13] and 230 nM in experiment [14]. The “fold increase of IC50” value was found to be 1.0 fold in [4]; 25 fold in experiment [6]; 2.9 fold in experiment [12] (patient code 48); 1.7 fold in experiment [12] (patient code 160); 3.1 fold in experiment [12] (patient code 181); 20 fold in [12] (patient code 393). In addition, the “fold increase of IC50” value in experiment [12] (patient code 622) is on record as 1.4 fold; in experiment [12] (patient code 656), 7.8 fold; in experiment [12] (patient code 662), 3.1 fold; in experiment [12] (patient code 807), 3.1 fold; in experiment [12] (patient code 1030), 20 fold; in [12] (patient code 1144), 3.5 fold. The “fold increase of IC50” value in experiment [12] (patient code 1320) was 8.3 fold; in experiment [12] (patient code 2098), 2.2 fold; in experiment [12] (patient code 3507) it was 0.8 fold.

Usually IC50 stands for the concentration that inhibits the measured activity by half.
